Data on 14 compounds can be found in patent US20260176262A1, “KRAS INHIBITORS, PREPARATION METHOD THEREFOR, AND PHARMACEUTICAL USE THEREOF” (ABBISKO THERAPEUTICS CO., LTD., priority 2021, published 2026).

Like-named read-outs stand apart in the source and are kept apart here. Bounds are passed on as bounds.

One test relates to AGS cell. Kind of test: Anti-proliferative 2D CTG assay, AGS cells. Type of test: cell-based. The note with it: Homo sapiens, 72 h, AGS cells, incubated 3 days, CTG, read-out: AGS cell IC50. The protocol: When the cell confluence was about 80%, the cells were isolated with 0.25% trypsin. Isolated cells were resuspended in 5 mL fresh cell culture medium and centrifuged for cell collection. Meanwhile, the number of cells was also calculated. The cells were then suspended in culture medium of medium concentration. The cells were placed into a 96-well plate with 1000 cells/well for AGS and 1000 cells/well for GP2D. The 96-well plate was placed in an incubator at 37° C. and incubated overnight.
1.2 Day 1 Compound Treatment From the 10 mM stock solution, with a ratio of 1:5, 10-point serial dilutions were performed. The 10× medium containing the compound was transferred into corresponding wells of the 96 wells. The final maximum compound concentration was […] and the final DMSO concentration was 0.1%. The 96-well plate was placed in a 37° C. incubator, the AGS cells were incubated for 3 days, and the GP2D cells were incubated for 4 days.
50 μL/well of detection reagent (CTG) was added to the AGS cells, and the signal was read in an Envision machine.
The percent inhibition (%) at each compound concentration was calculated from the signal in the HPE and ZPE control wells and the fluorescence signal in the individual compound wells included in each assay plate. […] The compound concentration required for inhibitory concentration at 50% (IC50) was determined using a four-parameter logarithmic dose-response equation by testing the concentration of the compound and the inhibition percentage value. The endpoint value (IC50) of the reference compound was assessed in each experiment as a quality control measure. If the endpoint value is within three times the expected value, the experiment may be considered acceptable.

The next test deals with KRAS^G12D/cRAF (Homo sapiens, UniProt P01116, G12D). Kind of test: KRAS G12D/cRAF binding test (Alphalisa). The note with it: His-tagged KRAS G12D + GMPPNP, GST-tagged cRAF. The protocol: The compound was dissolved in 100% DMSO at a starting concentration of 5 mM and diluted in DMSO with a 3-fold serial dilution method for a total of 8 concentration points. 1 μL of the compound or DMSO at each concentration point was added into 99 μL of the experimental buffer to obtain 10× stock solution.
Sequence of KRAS^G12D/cRAF (P01116 1-188 isoform P01116-2 G12D): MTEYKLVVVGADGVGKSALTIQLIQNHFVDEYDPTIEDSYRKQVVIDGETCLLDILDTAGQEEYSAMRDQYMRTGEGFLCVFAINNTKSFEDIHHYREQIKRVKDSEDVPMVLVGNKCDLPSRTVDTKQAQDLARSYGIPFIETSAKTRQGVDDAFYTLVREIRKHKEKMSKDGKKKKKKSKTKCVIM
• 1) 4 μL of the working mixture solution of His-tagged KRAS^G12D and GMPPNP was added to the 384-well plate. • 2) The 10× compound stock solution or 1% DMSO was added to the 384-well plate. • 3) The plate was centrifuged at 1000 rpm for 1 minute. • 4) 4 μL of GST-tagged cRAF solution was added to the 384-well plate. • 5) The plate was centrifuged at 1000 rpm for 1 minute. • 6) The plate was incubated at room temperature for 15 minutes. • 7) 10 μL of detection working solution was added to the 384-well plate. • 8) The plate was centrifuged at 1000 rpm for 1 minute. • 9) The plate was incubated at room temperature for 60 minutes. • 10) The 384-well plate was placed into Envision and assay data was obtained.
The ratio for each compound concentration was calculated from the signal of the DMSO control group contained in each assay plate and the Alphalisa signal in each compound well. The compound concentration required for inhibitory concentration at 50% (IC50) was determined using a four-parameter logarithmic dose-response equation by testing the concentration of the compound and the value of the ratio. The endpoint value (IC50) of the reference compound was assessed in each experiment as a quality control measure. If the endpoint value is within three times the expected value, the experiment may be considered acceptable.

On to `[2H]C([2H])([2H])C12CCC(CN(c3nc(OC[C@@]45CCCN4C[C@H](F)C5)nc4c(F)c(-c5cc(O)cc6ccc(F)c(C#C)c56)ncc34)C1)N2` (stereo partly drawn) [Example 7, 5-ethynyl-6-fluoro-4-(8-fluoro-2-(((2R,7aS)-2-fluorotetrahydro-1H-pyrrolizin-7a(5H)-yl)methoxy)-4-(1-(methyl-d3)-3,8-diazabicyclo[3.2.1]octan-3-yl)pyrido [4,3-d]pyrimidin-7-yl) naphthalen-2-ol], for which the half-maximal inhibitory concentration (IC50) amounted to 28 nM with AGS cell (numeric values) and 4.3 nM on KRAS^G12D/cRAF (numeric values).
As to `C#Cc1c(F)ccc2cc(O)cc(-c3ncc4c(N5CC6CCC(C(=O)OC)(C5)N6)nc(OC[C@@]56CCCN5C[C@H](F)C6)nc4c3F)c12` (stereo partly drawn) [Example 23, methyl 3-(7-(8-ethynyl-7-fluoro-3-hydroxynaphthalen-1-yl)-8-fluoro-2-(((2R,7aS)-2-fluorotetrahydro-1H-pyrrolizin-7a(5H)-yl)methoxy)pyrido[4,3-d]pyrimidin-4-yl)-3,8-diazabicyclo[3.2.1] octan-1-carboxylate], the IC50 in the test with AGS cell (class symbols) and at KRAS^G12D/cRAF (class symbols) was 50 to 500 nM in each case.
On to `[2H]C([2H])([2H])OCC12CCC(CN(c3nc(OC[C@@]45CCCN4C[C@H](F)C5)nc4c(F)c(-c5cc(O)cc6ccc(F)c(C#C)c56)nc(C)c34)C1)N2` (stereo partly drawn) [Example 39, 5-ethynyl-6-fluoro-4-(8-fluoro-2-(((2R,7aS)-2-fluorotetrahydro-1H-pyrrolizin-7a(5H)-yl)methoxy)-4-(1-((methoxy-d3)methyl)-3,8-diazabicyclo[3.2.1]octan-3-yl)-5-methylpyrido[4,3-d]pyrimidin-7-yl)naphthalen-2-ol], for which the IC50 in the test with AGS cell (class symbols) was less than 50 nM; at KRAS^G12D/cRAF (class symbols) it was 50 to 500 nM.
As to `C#Cc1c(F)ccc2cc(O)cc(-c3ncc4c(N5C[C@@H]6CC[C@](C=C)(C5)N6)nc(OC[C@@]56CCCN5C[C@H](F)C6)nc4c3F)c12` [Example 58, 5-ethynyl-6-fluoro-4-(8-fluoro-2-(((2R,7aS)-2-fluorotetrahydro-1H-pyrrolizin-7a(5H)-yl)methoxy)-4-((1S,5S)-1-vinyl-3,8-diazabicyclo[3.2.1]octan-3-yl)pyrido[4,3-d]pyrimidin-7-yl)naphthalen-2-ol], the values for the IC50 in the test on AGS cell (numeric values) and at KRAS^G12D/cRAF (numeric values) were 127 nM and 47 nM, respectively.
As for `C#Cc1c(F)ccc2cc(O)cc(-c3ncc4c(N5CC6CCC(CCF)(C5)N6)nc(OC[C@@]56CCCN5C[C@H](F)C6)nc4c3F)c12` (stereo partly drawn) [Example 8, 5-ethynyl-6-fluoro-4-(8-fluoro-4-(1-(2-fluoroethyl)-3,8-diazabicyclo[3.2.1]octan-3-yl)-2-(((2R,7aS)-2-fluorotetrahydro-1H-pyrrolizin-7a(5H)-yl)methoxy)pyrido[4,3-d]pyrimidin-7-yl) naphthalen-2-ol], the IC50 in the test with AGS cell (class symbols) and at KRAS^G12D/cRAF (class symbols) was less than 50 nM each time.
Regarding `C#Cc1c(F)ccc2cc(O)cc(-c3ncc4c(N5CC6(C)CCC(C)(C5)N6)nc(OC[C@@]56CCCN5C[C@H](F)C6)nc4c3F)c12` [Example 20, 4-(4-(1,5-dimethyl-3,8-diazabicyclo[3.2.1]octan-3-yl)-8-fluoro-2-(((2R,7aS)-2-fluorotetrahydro-1H-pyrrolizin-7a(5H)-yl)methoxy)pyrido[4,3-d]pyrimidin-7-yl)-5-ethynyl-6-fluoronaphthalen-2-ol], the IC50 with AGS cell (class symbols) is less than 50 nM; on KRAS^G12D/cRAF (class symbols), 50 to 500 nM.
For `C#Cc1c(F)ccc2cc(O)cc(-c3ncc4c(N5CC6CCC(COC(F)F)(C5)N6)nc(OC[C@@]56CCCN5C[C@H](F)C6)nc4c3F)c12` (stereo partly drawn) [Example 4, 4-(4-(1-((difluoromethoxy)methyl)-3,8-diazabicyclo[3.2.1]octan-3-yl)-8-fluoro-2-(((2R,7aS)-2-fluorotetrahydro-1H-pyrrolizin-7a(5H)-yl)methoxy)pyrido[4,3-d]pyrimidin-7-yl)-5-ethynyl-6-fluoronaphthalen-2-ol], the IC50 in the test on AGS cell (class symbols) and on KRAS^G12D/cRAF (class symbols) was 50 to 500 nM in each case.
Take `C#Cc1c(F)ccc2cc(O)cc(-c3ncc4c(N5CC6CCC(C(=O)O)(C5)N6)nc(OC[C@@]56CCCN5C[C@H](F)C6)nc4c3F)c12` (stereo partly drawn) [Example 22, 3-(7-(8-ethynyl-7-fluoro-3-hydroxynaphthalen-1-yl)-8-fluoro-2-(((2R,7aS)-2-fluorotetrahydro-1H-pyrrolizin-7a(5H)-yl)methoxy)pyrido[4,3-d]pyrimidin-4-yl)-3,8-diazabicyclo[3.2.1] octan-1-carboxylic acid]: the IC50 in the test on AGS cell (class symbols) was greater than 500 nM; at KRAS^G12D/cRAF (class symbols), 50 to 500 nM.
For the compound `[2H]C([2H])([2H])OCC12CCC(CN(c3nc(OC[C@@]45CCCN4C[C@H](F)C5)nc4c(F)c(-c5cc(O)cc6cc(F)c(F)c(C#C)c56)ncc34)C1)N2` (stereo partly drawn) [Example 15, 5-ethynyl-6,7-difluoro-4-(8-fluoro-2-(((2R,7aS)-2-fluorotetrahydro-1H-pyrrolizin-7a(5H)-yl)methoxy)-4-(1-((methoxy-d3)methyl)-3,8-diazabicyclo[3.2.1]octan-3-yl)pyrido[4,3-d]pyrimidin-7-yl)naphthalen-2-ol], the IC50 with AGS cell (class symbols) and at KRAS^G12D/cRAF (class symbols) was 50 to 500 nM in each case.
Turning to `[2H]C([2H])([2H])OCC12CCC(CN(c3nc(OC[C@@]45CCCN4C[C@H](F)C5)nc4c(F)c(-c5cc(O)cc6cc(Cl)c(F)c(C#C)c56)ncc34)C1)N2` (stereo partly drawn) [Example 16, 7-chloro-5-ethynyl-6-fluoro-4-(8-fluoro-2-(((2R,7aS)-2-fluorotetrahydro-1H-pyrrolizin-7a(5H)-yl)methoxy)-4-(1-((methoxy-d3)methyl)-3,8-diazabicyclo [3.2.1]octan-3-yl)pyrido[4,3-d]pyrimidin-7-yl)naphthalen-2-ol], the IC50 is 50 to 500 nM with AGS cell (class symbols) and greater than 500 nM on KRAS^G12D/cRAF (class symbols).
For `C#Cc1c(F)ccc2cc(O)cc(-c3ncc4c(N5CC6CCC(CN(C)C)(C5)N6)nc(OC[C@@]56CCCN5C[C@H](F)C6)nc4c3F)c12` (stereo partly drawn) [Example 24, 4-(4-(1-((dimethylamino)methyl)-3,8-diazabicyclo[3.2.1]octan-3-yl)-8-fluoro-2-(((2R,7aS)-2-fluorotetrahydro-1H-pyrrolizin-7a(5H)-yl)methoxy)pyrido[4,3-d]pyrimidin-7-yl)-5-ethynyl-6-fluoronaphthalen-2-ol], in that order: less than 50 nM and 50 to 500 nM.
For `[2H]C([2H])([2H])OC[C@@]12CC[C@@]([2H])(CN(c3nc(OC[C@@]45CCCN4C[C@H](F)C5)nc4c(F)c(-c5cc(O)cc6ccc(F)c(C#C)c56)ncc34)C1)N2` [Example 48, 5-ethynyl-6-fluoro-4-(8-fluoro-2-(((2R,7aS)-2-fluorotetrahydro-1H-pyrrolizin-7a(5H)-yl)methoxy)-4-((1R,5S)-1-((methoxy-d3)methyl)-3,8-diazabicyclo[3.2.1]octan-3-yl-5-d)pyrido[4,3-d]pyrimidin-7-yl)naphthalen-2-ol], in that order: less than 50 nM and greater than 500 nM.
Consider `C#Cc1c(F)ccc2cc(O)cc(-c3ncc4c(N5CC6CCC(CSC)(C5)N6)nc(OC[C@@]56CCCN5C[C@H](F)C6)nc4c3F)c12` (stereo partly drawn) [Example 10, 5-ethynyl-6-fluoro-4-(8-fluoro-2-(((2R,7aS)-2-fluorotetrahydro-1H-pyrrolizin-7a(5H)-yl)methoxy)-4-(1-((methylthio)methyl)-3,8-diazabicyclo [3.2.1]octan-3-yl)pyrido[4,3-d]pyrimidin-7-yl)naphthalen-2-ol], for which the half-inhibitory concentration (IC50) with AGS cell (class symbols) is 50 to 500 nM; at KRAS^G12D/cRAF (class symbols), greater than 500 nM.
Take `C#Cc1c(F)ccc2cc(O)cc(-c3ncc4c(N5C[C@H]6CC[C@@](CC)(C5)N6)nc(OC[C@@]56CCCN5C[C@H](F)C6)nc4c3F)c12` [Example 53, 4-(4-((1S,5R)-1-ethyl-3,8-diazabicyclo[3.2.1]octan-3-yl)-8-fluoro-2-(((2R,7aS)-2-fluorotetrahydro-1H-pyrrolizin-7a(5H)-yl)methoxy)pyrido[4,3-d]pyrimidin-7-yl)-5-eth ynyl-6-fluoronaphthalen-2-ol]: the values for the IC50 in the test on AGS cell (numeric values) and at KRAS^G12D/cRAF (numeric values) were 708 nM and 221 nM, respectively.

As usually defined, the IC50 is the point on the concentration scale where inhibition reaches its midpoint.
